Results as given in patent US5238936A, “Trisubstituted triazines” (Adir et Compagnie, priority 1991, dated 1993).

Key:
line DC-3F/AD [1] = test: Cytotoxicity (Microculture Tetrazolium Assay): reversal of resistance to actinomycin D, line DC-3F/AD; assay type: cell-based, Chinese hamster; conditions: 4 days
Source text: The pharmacological study of the compounds of the present invention consisted first of all in an evaluation in vitro carried out on resistant cells. The parameter measured is the cytotoxicity of the antitumour drug, quantified in the absence and in the presence of the reversing compound.
The cells are distributed on microplates and exposed to the cytotoxic compounds (actinomycin D for line DC-3F/AD and adriamycin for line KB-Al) at 9 concentrations (2 by 2 series dilutions). The compounds tested for their capacity to reverse MDR are added at the same time as the cytotoxic agent.
The cells are then incubated for 4 days. […] The results are expressed as a reversion factor (RF): PG,29 [formula]

resistant line P/388/VCR = test: Antitumour activity in vivo: increase in antitumour activity of vincristine on murine leukaemia P 388/VCR; set-up: species or system murine; female B6D2Fl mice; conditions: with vincristine […] i.p., ± sem, no compound: 146 ± 2
Source text: This study was completed by an in vivo study, using a murine leukaemia resistant to vincristine (P/388/VCR) and using the compounds in association with vincristine.
The sensitive parent line P 388 (murine leukaemia) and the sub-line resistant to vincristine, P 388/VCR, were supplied by NCI (Frederick, USA). The tumour cells (10^6 cells) were inoculated on day 0 into the intraperitoneal cavity of female B6D2Fl mice (Iffa Credo, France) weighing from 18 to 20 g (groups of 8 to 10 animals).
Every day for 4 days, starting from day 1, the animals received: […]
30 to 60 minutes later, an administration by the i.p. route of 0.25 mg/kg of vincristine (used as a reference antitumour agent).
The tumour activity is expressed as follows: [formula]
The values are mean values obtained in independent experiments (± sem when n is greater than or equal to 3).

line DC-3F/AD [2] = test: Flow cytometry: intracellular accumulation of adriamycin by cells of the line DC-3F/AD; assay type: cell-based, Chinese hamster; conditions: ADR 50 μM, 5 hours
Source text: Also measured was the effect of the compounds on the intracellular concentration of the cytotoxic agent. In effect, the known compounds for reversing MDR act by increasing the intracellular concentration of cytotoxic agent. This effect is the consequence of inhibiting the action of gP 170 which is responsible for the efflux of the drug.
By measuring that fluorescence, it is thus possible to obtain a relative measurement of the intracellular concentration of ADR.
The cells 500×10^3 per ml were exposed simultaneously to ADR at a fixed concentration (50 μM) and to the tested compounds at various concentrations. After 5 hours' incubation, the intracellular accumulation of ADR was evaluated by FCM. […] The analysis of each of the samples was carried out on a total of 10,000 cells at a rate of 1,000 cells per second.
The results were presented in the form of linear histograms of the intracellular ADR fluorescence.
Expression of the results: for each of the histograms the mean fluorescence per channel (MEAN) was determined by the information system of the apparatus. For all experiments:
a negative control (cells without ADR) fixed the autofluorescence threshold.
a positive control (cells with ADR) determined the MEAN value=MN1.
the "test" tubes (cells with ADR and with compound) were used to determine, for each of the compounds and at each of the concentrations, the MEAN values=MN2.
The results are expressed in the form of variations from the mean fluorescence obtained for each of the "test" tubes (MN2) in relation to the mean fluorescence obtained with the positive control (MNl): VAR-MEAN=MN2-MN1. The parameter expressed is thus the increase in ADR fluorescence in the presence of the tested compounds.

[3] = 100 mg/kg i.p. daily for 4 days

Row | Structure (SMILES) | Reversion factors (cytotoxicity) with the line DC-3F/AD (line DC-3F/AD [1]; 0.5 μM compound) | Reversion factors (cytotoxicity) with the line DC-3F/AD (line DC-3F/AD [1]; 1 μM compound) | Reversion factors (cytotoxicity) with the line DC-3F/AD (line DC-3F/AD [1]; 5 μM compound) | T/C % (resistant line P/388/VCR; 50 mg/kg i.p. daily for 4 days) [%] | T/C % (resistant line P/388/VCR; [3]) [%] | VAR-MEAN (increase in ADR fluorescence), line DC-3F/AD (line DC-3F/AD [2]; 1.0 μM compound) | VAR-MEAN (increase in ADR fluorescence), line DC-3F/AD (line DC-3F/AD [2]; 5.0 μM compound) | VAR-MEAN (increase in ADR fluorescence), line DC-3F/AD (line DC-3F/AD [2]; 10 μM compound) | VAR-MEAN (increase in ADR fluorescence), line DC-3F/AD (line DC-3F/AD [2]; […] compound)
1 | C=CCNc1nc(NCC=C)nc(N2CCC(NCC3c4ccccc4COc4ccccc43)CC2)n1 (racemic) [Example 19, 2,4-diallylamino-6-{4-[((R,S)-6,11-dihydro-dibenzo[b,e]oxepin-11-yl)methylamino]piperidin-1-yl}-1,3,5-triazine] | 3.8 | 63 | 2525 | 167 ± 7 | 184 ± 7 | 13.1 | 25.5 | 25.3 | 22.6
2 | C=CCNc1nc(NCC=C)nc(N2CCC(NCC3c4ccccc4N(C)S(=O)(=O)c4cc(Cl)ccc43)CC2)n1 (racemic) [Example 21, 2,4-diallylamino-6-{4-[(8-chloro-10,10-dioxo-11-methyl-(R,S)-dibenzo[c,f]thiazepin-5-yl)methylamino]piperidin-1-yl}-1,3,5-triazine] | 1.2 | 18 | 2804 | 154 | 148 | 8.1 | 22.8 | 24.1 | 21.1
3 | C=CCNc1nc(NCC=C)nc(N2CCC(NCC3c4ccccc4-c4ccccc43)CC2)n1 [Example 13, 2,4-diallylamino-6-{4-[(fluoren-9-yl)methylamino]piperidin-1-yl}-1,3,5-triazine] | 2.1 | 7.1 | 170 | – | – | 8.1 | 19.6 | 23.2 | 12.0
4 | CNc1nc(NC)nc(N2CCC(NCC3c4ccccc4CCc4ccccc43)CC2)n1 [Example 14, 2,4-dimethylamino-6-{4-[(10,11-dihydro-5H-dibenzo[a,d]cyclohepten-5-yl)methylamino]piperidin-1-yl}-1,3,5-triazine] | 1.3 | 7.8 | 187 | – | – | 12.3 | 29.4 | 30.6 | 14.5
5 | C=CCNc1nc(NCC=C)nc(NCCN2CCC(NCC3c4ccccc4CCc4ccccc43)CC2)n1 [Example 15, 2,4-diallylamino-6-(2-[4-(10,11-dihydro-5H-dibenzo-[a,d]cyclohepten-5-ylmethylamino)piperidin-1-yl]ethylamino}-1,3,5-triazine] | 0.8 | 1 | 120 | – | – | 10.1 | 13.7 | 12.4 | 12.4
6 | C=CCNc1nc(NCC=C)nc(NCC(O)CN2CCC(NC3c4ccccc4CCc4ccccc43)CC2)n1 (stereo not shown) [Example 16, 2,4-diallylamino-6-{3-[4-(10,11-dihydro-5H-dibenzo[a,d]cyclohepten-5-ylamino)piperidin-1-yl]-2-hydroxypropylamino}-1,3,5-triazine] | 1 | 0.9 | 1.8 | – | – | 9.9 | 10.4 | 12.9 | 11.8
